Values joined by “and” are separate entries in the source; they are usually repeats but may differ in a detail not shown here. Identical values can stand only once.
Key:
[1] = target: Epidermal Growth Factor (EGF) (Homo sapiens, UniProt P00533); assay: Eurofins panel 225510; assay type: binding
[2] = target: Bradykinin B2 (Homo sapiens, UniProt P30411); assay: Eurofins panel 212620; assay type: binding
[3] = test system: Glutamate, Kainate; assay: Eurofins panel 232700; assay type: binding, rat; details: 10 µM
[4] = test system: GABAA, Muscimol, Central; assay: Eurofins panel 226500; assay type: binding, rat; details: 10 µM
[5] = target: Transporter, GABA (Rattus norvegicus, UniProt P23978); assay: Eurofins panel 226400; assay type: binding
[6] = target: Sigma σ1 (Homo sapiens, UniProt Q99720); assay: Eurofins panel 278110; assay type: binding
[7] = test system: primary dermal fibroblasts; assay: Procollagen I FRET measurement, scar-in-a-jar; assay type: cell-based, human; details: highest dose (10 µM)
[8] = target: Interleukin IL-1 (Mus musculus, UniProt P13504); assay: Eurofins panel 243520; assay type: binding
[9] = test system: Glutamate, NMDA, Phencyclidine; assay: Eurofins panel 233000; assay type: binding, rat; details: 10 µM
[10] = target: Nicotinic Acetylcholine α1β2, Cytisine (Homo sapiens, UniProt P17787+P43681); assay: Eurofins panel 299031; assay type: binding
[11] = PAMPA permeability; assay type: in vitro ADME
[12] = test system: lysyl oxidase activity in the skin; assay: Rat pharmacokinetic-pharmacodynamic model, skin lysyl oxidase activity; assay type: in vivo; details: for skin LOX activity S/N: individual animals; for inhibition of the specific lysyl oxidase signal: after 24 h
Method: (§1) PXS-6302 was formulated as an oil in water cream of different concentrations (0, 0.3, 1, 10%) and applied to a shaved area on the back of a rat (500 mg cream applied to 16 cm^2). After 24 h animals were sacrificed, the concentration of PXS-6302 in the skin was measured and the lysyl oxidase activity determined.
Fig. 5 Pharmacokinetic-pharmacodynamic measurement of target engagement in rat skin in vivo. […] Activity was measured 24 h after last topical application. Noise in these assays was determined by measuring background fluorescent changes in the presence of a high (>300 μM) concentration of BAPN to block all lysyl oxidase activity in the presence of other amine oxidase inhibitors (n = 3 per group). The signal (activity in the absence of BAPN) over noise (signal of the same extract in the presence of BAPN). Statistical analysis was performed with one-way ANOVA with Tukey’s method for multiple comparisons. *p < 0.05, **p < 0.01, ***p < 0.001 and ****p < 0.0001. Source data are provided as a Source Data file. […]
(§2) PXS-6302 was formulated as an oil in water cream of different concentrations (0, 0.3, 1, 10%) and applied to a shaved area on the back of an adult rat (500 mg cream applied to 16 cm^2 skin surface area). After 24 h animals were euthanased. For the detection of lysyl oxidase activity in the skin, epidermal and dermal layers of the skin were dissected, pre-cooled with liquid nitrogen and pulverized. Samples were washed by homogenization with ice-cold wash buffer (0.15 M NaCl, 50 mM sodium borate, pH 8.0 with 0.25 mM PMSF and 1 µL/mL bovine aprotinin as protease inhibitors) at 100 µL/mg, centrifuged at 10,000 × g for 10 min at 4 °C and supernatant discarded. After the final washing step, the pellet was resuspended in extraction buffer (6 M urea, 50 mM sodium borate, pH 8.2 with 0.25 mM PMSF and 1 µL/mL aprotinin as protease inhibitors) with ratio of buffer volume to tissue weight at 4:1. After a 3 h incubation at 4 °C, the mixture was diluted 1:2 with assay buffer containing 50 mM sodium borate (pH 8.2), centrifuged at 20,000 × g for 20 min at 4 °C. The collected supernatant was spiked with pargyline hydrochloride and mofegiline hydrochloride at final concentrations of 0.5 mM and 1 µM, respectively, to inhibit amine oxidases. Lysyl oxidase activity was measured as previously described. The concentration of PXS-6302 in the skin was also measured in the same samples using LCMSMS as described for Franz cell diffusion assay.

[13] = target: Protein Tyrosine Kinase, LCK (Homo sapiens, UniProt P06239); assay: Eurofins panel 176020; assay type: biochemical
[14] = Rat pharmacokinetic-pharmacodynamic model, skin concentration; assay type: in vivo; details: topical; for concentration at 24 h after the last dose: 24 h after last dose; for concentration at 24 h: 500 mg on 16 cm^2, 24 h
Method: as §1
To investigate the effect of repeat dosing, cream at different concentrations (0, 0.5, 1, and 3% PXS-6302, 400 mg applied to 16 cm^2) was applied once daily for 5 consecutive days and 24 h after the last dose, animals were sacrificed and the skin concentration determined.
as §2

[15] = test system: Caco-2 cells; assay: Caco-2 permeability; assay type: in vitro ADME
Method: (§3) The penetration of PXS-6302 across a monolayer of cells was tested using Caco-2 or MDCKII cells transfected with P-glycoprotein (Pgp).

[16] = Caco-2 permeability; assay type: in vitro ADME; details: human, Caco-2
Method: as §3

[17] = target: Dog Aorta LOX (Canis lupus familiaris, UniProt A0A8I3N9H6); assay type: biochemical
Method: The measurement of the enzymatic activity of all lysyl oxidase family members was based on the detection of hydrogen peroxide with an Amplex-Red oxidation assay, as previously described; miniaturized in 384 well formats, with the appropriate combination of substrate and assay buffer for each individual enzyme. After a 30 min pre-incubation of the enzyme at 37 °C with the test compound (or with different incubation times for the time-dependency assay), one volume of reaction mixture containing 120 μM Amplex Red (AR) (Life Technologies), 1.5 U/mL horseradish peroxidase (HRP) (Sigma-Aldrich) and the specific substrate was added to each sample. The relative fluorescence units (RFU) were then measured every 2.5 min for 30 min at 37 °C, excitation 565 nm and emission 590, on a BMG Clariostar Microplate Reader. All the substrates were used at concentrations corresponding to their Km towards the corresponding enzyme, or with a range of different concentrations for the substrate competition experiments.
Lysyl oxidases assay buffer contained 1.2 M urea, 50 mM sodium borate buffer, pH 8.2 and 100 µM β-aminoproprionitrile (BAPN, Sigma-Aldrich) was used for low control. […]

Dog Aorta LOX, sequence (A0A8I3N9H6 entry or part of it): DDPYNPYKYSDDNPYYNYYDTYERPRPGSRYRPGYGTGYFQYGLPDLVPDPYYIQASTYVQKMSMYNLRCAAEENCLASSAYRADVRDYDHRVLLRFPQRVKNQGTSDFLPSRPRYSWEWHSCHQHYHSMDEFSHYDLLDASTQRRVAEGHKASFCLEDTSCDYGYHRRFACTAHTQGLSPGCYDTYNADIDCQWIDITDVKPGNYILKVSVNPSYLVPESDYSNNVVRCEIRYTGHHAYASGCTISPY
Protein Tyrosine Kinase, LCK, sequence (P06239 whole entry): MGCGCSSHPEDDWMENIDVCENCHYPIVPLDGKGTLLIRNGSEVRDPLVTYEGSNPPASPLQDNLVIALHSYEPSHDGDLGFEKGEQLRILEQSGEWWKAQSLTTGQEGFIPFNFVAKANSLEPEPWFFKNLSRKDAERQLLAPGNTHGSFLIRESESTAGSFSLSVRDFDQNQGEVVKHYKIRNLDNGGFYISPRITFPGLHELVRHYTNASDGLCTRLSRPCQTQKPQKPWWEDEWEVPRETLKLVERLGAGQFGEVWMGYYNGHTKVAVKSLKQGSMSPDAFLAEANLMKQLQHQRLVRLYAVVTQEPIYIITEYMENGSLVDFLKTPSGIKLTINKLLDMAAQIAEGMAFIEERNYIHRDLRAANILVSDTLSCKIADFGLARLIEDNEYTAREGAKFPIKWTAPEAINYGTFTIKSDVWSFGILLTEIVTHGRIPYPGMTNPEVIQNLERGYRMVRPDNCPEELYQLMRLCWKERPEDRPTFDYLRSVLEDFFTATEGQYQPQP
Epidermal Growth Factor (EGF), sequence (P00533 25-1210): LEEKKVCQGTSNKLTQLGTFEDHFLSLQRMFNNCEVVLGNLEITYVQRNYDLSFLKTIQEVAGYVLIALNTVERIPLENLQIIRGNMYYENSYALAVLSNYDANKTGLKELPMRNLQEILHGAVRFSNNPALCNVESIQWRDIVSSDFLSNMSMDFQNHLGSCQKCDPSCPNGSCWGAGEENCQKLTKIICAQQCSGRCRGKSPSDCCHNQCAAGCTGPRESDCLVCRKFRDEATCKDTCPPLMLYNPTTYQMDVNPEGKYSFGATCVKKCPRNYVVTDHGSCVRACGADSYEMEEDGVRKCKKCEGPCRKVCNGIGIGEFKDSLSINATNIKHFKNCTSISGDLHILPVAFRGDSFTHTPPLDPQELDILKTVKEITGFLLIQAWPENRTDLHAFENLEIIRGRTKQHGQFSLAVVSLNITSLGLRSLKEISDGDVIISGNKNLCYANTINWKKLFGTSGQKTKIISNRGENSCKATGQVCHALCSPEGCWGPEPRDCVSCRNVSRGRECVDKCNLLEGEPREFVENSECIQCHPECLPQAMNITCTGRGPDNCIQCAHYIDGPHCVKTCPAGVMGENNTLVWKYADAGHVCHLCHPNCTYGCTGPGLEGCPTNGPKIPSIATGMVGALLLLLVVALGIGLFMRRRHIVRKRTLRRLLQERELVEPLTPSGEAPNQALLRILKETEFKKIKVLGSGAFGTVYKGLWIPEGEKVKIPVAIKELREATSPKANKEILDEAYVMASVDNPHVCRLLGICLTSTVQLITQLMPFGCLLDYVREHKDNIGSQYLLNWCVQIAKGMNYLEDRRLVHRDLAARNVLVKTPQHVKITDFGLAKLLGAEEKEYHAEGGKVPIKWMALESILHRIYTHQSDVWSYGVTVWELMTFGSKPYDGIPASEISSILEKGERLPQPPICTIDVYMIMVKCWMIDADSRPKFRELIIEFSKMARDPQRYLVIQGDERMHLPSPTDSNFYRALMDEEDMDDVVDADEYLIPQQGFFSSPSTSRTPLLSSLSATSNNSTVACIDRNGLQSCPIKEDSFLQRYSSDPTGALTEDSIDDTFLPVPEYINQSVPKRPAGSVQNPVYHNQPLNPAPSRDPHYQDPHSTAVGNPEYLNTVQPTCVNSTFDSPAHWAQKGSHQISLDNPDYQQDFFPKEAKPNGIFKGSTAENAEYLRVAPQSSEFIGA
Bradykinin B2, sequence (P30411 whole entry): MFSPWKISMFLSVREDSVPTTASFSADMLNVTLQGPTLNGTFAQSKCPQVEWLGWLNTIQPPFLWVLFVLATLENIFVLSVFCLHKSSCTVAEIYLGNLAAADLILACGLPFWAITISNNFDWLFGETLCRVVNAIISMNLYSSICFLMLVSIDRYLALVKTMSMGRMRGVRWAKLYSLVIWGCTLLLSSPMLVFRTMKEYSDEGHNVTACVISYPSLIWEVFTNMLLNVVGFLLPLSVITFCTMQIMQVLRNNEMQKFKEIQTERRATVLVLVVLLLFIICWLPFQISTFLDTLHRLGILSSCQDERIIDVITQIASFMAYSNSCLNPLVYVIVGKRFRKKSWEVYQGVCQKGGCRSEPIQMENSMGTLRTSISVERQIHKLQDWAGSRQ
Nicotinic Acetylcholine α1β2, Cytisine, sequence (P43681 27-627): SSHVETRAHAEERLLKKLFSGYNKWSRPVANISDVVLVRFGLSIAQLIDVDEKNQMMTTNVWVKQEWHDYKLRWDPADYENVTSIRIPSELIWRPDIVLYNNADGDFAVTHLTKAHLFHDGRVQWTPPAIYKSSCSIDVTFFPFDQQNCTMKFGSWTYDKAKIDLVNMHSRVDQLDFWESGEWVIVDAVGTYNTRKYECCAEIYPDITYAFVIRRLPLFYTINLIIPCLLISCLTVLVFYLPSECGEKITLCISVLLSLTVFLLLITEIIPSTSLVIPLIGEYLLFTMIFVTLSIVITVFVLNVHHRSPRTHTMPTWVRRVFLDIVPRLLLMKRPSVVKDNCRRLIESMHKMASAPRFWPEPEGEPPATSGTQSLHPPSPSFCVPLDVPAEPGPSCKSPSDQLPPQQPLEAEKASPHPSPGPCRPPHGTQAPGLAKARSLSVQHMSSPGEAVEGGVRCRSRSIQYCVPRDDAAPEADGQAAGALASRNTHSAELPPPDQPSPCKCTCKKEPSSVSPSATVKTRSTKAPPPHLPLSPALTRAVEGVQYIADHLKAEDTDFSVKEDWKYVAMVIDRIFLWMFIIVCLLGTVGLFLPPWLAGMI
Nicotinic Acetylcholine α1β2, Cytisine, sequence (P17787 26-502): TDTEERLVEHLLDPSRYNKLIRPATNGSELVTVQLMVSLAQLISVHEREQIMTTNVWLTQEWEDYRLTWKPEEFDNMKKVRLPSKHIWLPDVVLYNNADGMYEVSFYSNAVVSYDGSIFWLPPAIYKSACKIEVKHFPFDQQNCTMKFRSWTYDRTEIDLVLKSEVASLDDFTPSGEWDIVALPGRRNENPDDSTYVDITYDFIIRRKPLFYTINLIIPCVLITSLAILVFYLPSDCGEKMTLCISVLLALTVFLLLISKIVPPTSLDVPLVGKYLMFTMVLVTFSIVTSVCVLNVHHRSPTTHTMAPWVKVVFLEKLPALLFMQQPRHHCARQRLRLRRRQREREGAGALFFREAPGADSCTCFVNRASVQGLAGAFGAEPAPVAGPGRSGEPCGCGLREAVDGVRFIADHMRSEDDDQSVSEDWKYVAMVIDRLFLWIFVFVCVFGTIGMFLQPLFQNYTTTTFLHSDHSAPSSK
Interleukin IL-1, sequence (P13504 20-576): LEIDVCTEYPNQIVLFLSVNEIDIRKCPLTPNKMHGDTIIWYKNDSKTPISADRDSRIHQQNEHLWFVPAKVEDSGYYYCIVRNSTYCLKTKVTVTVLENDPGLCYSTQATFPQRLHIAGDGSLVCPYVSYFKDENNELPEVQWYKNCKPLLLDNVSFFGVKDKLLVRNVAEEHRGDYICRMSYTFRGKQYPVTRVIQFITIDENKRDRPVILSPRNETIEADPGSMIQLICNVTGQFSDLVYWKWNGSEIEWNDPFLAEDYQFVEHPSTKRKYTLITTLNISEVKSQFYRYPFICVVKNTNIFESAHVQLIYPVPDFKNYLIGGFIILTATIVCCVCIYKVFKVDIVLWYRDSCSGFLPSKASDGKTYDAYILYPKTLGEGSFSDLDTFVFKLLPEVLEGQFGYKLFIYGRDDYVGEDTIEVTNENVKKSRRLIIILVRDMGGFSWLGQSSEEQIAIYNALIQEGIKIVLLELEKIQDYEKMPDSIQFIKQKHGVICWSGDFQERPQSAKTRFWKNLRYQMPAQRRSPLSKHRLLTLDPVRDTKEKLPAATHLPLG
Sigma σ1, sequence (Q99720 whole entry): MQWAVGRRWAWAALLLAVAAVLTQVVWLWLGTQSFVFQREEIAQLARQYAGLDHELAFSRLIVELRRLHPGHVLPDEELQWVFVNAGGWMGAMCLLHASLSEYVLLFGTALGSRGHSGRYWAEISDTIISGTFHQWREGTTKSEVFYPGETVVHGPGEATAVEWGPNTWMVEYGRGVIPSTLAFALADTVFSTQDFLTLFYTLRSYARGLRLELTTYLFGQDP

Compound: NC/C=C(\F)CS(=O)(=O)c1ccccc1 [PXS-4787]
- inhibition at 10 µM [1]: 1%
- inhibition at 10 µM [2]: 5%
- % Inh. [3]: 16%
- % Inh. [4]: 13%
- inhibition at 10 µM [5]: 0%
- inhibition at 10 µM [6]: -10%
- collagen I production (soluble procollagen I) [7]: significant and sustained reduction
- inhibition at 10 µM [8]: 7%
- % Inh. [9]: 8%

Compound: NC/C=C(\F)C(F)(F)S(=O)(=O)c1ccccc1 [PXS-6302]
- inhibition at 30 µM [10]: -2%
- PAMPA permeability (class in words) [11]: High and high permeability
- Papp ([11]; GIT PAMPA at pH 7.4, read-out: PAMPA permeability, Average of P): 168 ×10⁻⁶ cm/s
- lysyl oxidase activity after repeat dosing ([12]; 0.5, 1, 3% cream once daily 5 days): strongly reduced
- lysyl oxidase activity, % of pre-drug activity ([12]; 1% cream, 48 h after the last dose): 26%
- skin LOX activity S/N ([12]; repeat application 0.5% 400mg): 1.603 and 1.3949 and 1.286 and 1.15
- skin LOX activity S/N ([12]; repeat application 1% 400mg): 1.251 and 1.262 (2×) and 1.26
- skin LOX activity S/N ([12]; repeat application 3% 400mg): 1.108 and 1.192 and 1.079 and 1.121
- skin LOX activity S/N ([12]; single application 0.3% 500mg): 1.245 and 1.84 and 2.264
- skin LOX activity S/N ([12]; single application 1% 500mg): 1.893 and 1.116 and 1.337
- skin LOX activity S/N ([12]; single application 10% 500mg): 1.274 and 1.089 and 1.033
- inhibition of the specific lysyl oxidase signal ([12]; single dose 1% cream): 67%
- inhibition of the specific lysyl oxidase signal ([12]; single dose 10% cream): 98%
- inhibition at 30 µM [13]: 1%
- concentration at 24 h after the last dose ([14]; 400 mg of 0.5% cream on 16 cm^2, once daily for 5 days, 0.5% cream 400 mg once daily 5 days): 4900 ± 800 ng/g
- concentration at 24 h after the last dose ([14]; 400 mg of 1% cream on 16 cm^2, once daily for 5 days, 1% cream 400 mg once daily 5 days): 9300 ± 700 ng/g
- concentration at 24 h after the last dose ([14]; 400 mg of 3% cream on 16 cm^2, once daily for 5 days, 3% cream 400 mg once daily 5 days): 31700 ± 3280 ng/g
- concentration at 24 h ([14]; 500 mg of 0.3% cream on 16 cm^2, single dose 0.3% cream): 7900 ± 1500 ng/g
- concentration at 24 h ([14]; 500 mg of 1% cream on 16 cm^2, single dose 1% cream): 8900 ± 1400 ng/g
- concentration at 24 h ([14]; 500 mg of 10% cream on 16 cm^2, single dose 10% cream): 119000 ± 7800 ng/g
- CaCo2 permeability (class in words) [15]: High and high permeability
- efflux ratio ([16]; read-out: CaCo2 efflux ratio): 0.8
- Papp ([16]; read-out: CaCo2 permeability Papp): 34 ×10⁻⁶ cm/s

Compound: N#CCCN [BAPN, β-aminoproprionitrile, reference compound]
- Dog Aorta LOX pIC50±SD [17]: 5.7 ± 0.1
- IC50 [17]: 2.13 µM
